One block for each compound: values may come before it.
Tests used:
[1] = test system: CWR22RV1 cells; experiment: Inhibition of proliferation of CWR22RV1 cells (CCK-8); assay type: cell-based, human; settings: Homo sapiens, CWR22Rv1, 144 h, 6 days culture
Method in brief: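 CWR22RV1 cells (1500/well) were exposed to 9 three-fold compound concentrations (top final 10 μM, 0.1% DMSO) for 6 days. CCK-8 was added for 2.5 h, and absorbance was read at 450 nm. IC50 was fitted with a dose-response-inhibition equation.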

[2] = test system: VCAP; experiment: Inhibition of proliferation of VCAP cells; assay type: cell-based; settings: Homo sapiens; Prostate cancer cell line VCAP; read-out: IC50 against VCAP
Experimental: (§1) 1) CWR22RV1 cells were subcultured in cell culture medium, and the cells in good growth condition were seeded in a 96-well plate, 80 μL for each well, and the cell number in each well was 1500. The plate was incubated overnight in a 37° C., 5% CO2 cell incubator. 2) The drug was prepared as 30 mM stock solution with dimethyl sulfoxide (DMSO). Prior to use, the stock solution was diluted 3 times with DMSO, and then further diluted as 3-fold gradient to obtain 9 concentration gradients. Then, each concentration of compound was diluted 200 times with the culture solution (ensuring that the DMSO concentration in the culture system was 0.1%), and two replicate wells were set for each concentration. 20 μL of diluted compound solution was added to the cell culture well (with final concentrations of 10 μM, 3.3 μM. 1.1 μM . . . ), and the plate was gently shaken to mix. In addition, 3 negative control wells containing only cells and 3 blank control wells containing only culture medium were included (6 wells were each added 20 μL DMSO diluted 200 times with culture medium). 2. Result detection: (1) After culturing for 6 days, 10 μL CCK-8 was added to each well, and the plate was continually cultured in a 37° C., 5% CO2 cell incubator for 2.5 h. (2) The absorbance (OD value) was detected at 450 nm using a multifunctional microplate reader. (3) The data were analyzed by Dose-response-inhibition equation in the software GraphPad Prism6, and the IC50 value was obtained.
(§2) Using the same method as Experimental example 2, CWR22RV1 cells were replaced with tumor cells in Table 3, and the IC50 (nM) of the compound according to the present invention against the activity of these tumor cells was tested and calculated.

[3] = test system: LNCAP-AR; experiment: Inhibition of proliferation of LNCAP-AR cells; assay type: cell-based; settings: Prostate cancer cell line LNCAP-AR; read-out: IC50 against LNCAP-AR
Experimental: as §1, §2

[4] = test system: LNCAP; experiment: Inhibition of proliferation of LNCAP cells; assay type: cell-based; settings: Homo sapiens; Prostate cancer cell line LNCAP; read-out: IC50 against LNCAP
Experimental: as §1, §2

[5] = test system: MOLT-4; experiment: Inhibition of proliferation of MOLT-4 cells; assay type: cell-based; settings: Homo sapiens; Leukemia cell line MOLT-4; read-out: IC50 against MOLT-4
Experimental: as §1, §2

[6] = test system: TALL-1; experiment: Inhibition of proliferation of TALL-1 cells; assay type: cell-based; settings: Homo sapiens; Leukemia cell line TALL-1; read-out: IC50 against TALL-1
Experimental: as §1, §2

[7] = test system: HEL; experiment: Inhibition of proliferation of HEL cells; assay type: cell-based; settings: Homo sapiens; Leukemia cell line HEL; read-out: IC50 against HEL
Experimental: as §1, §2

[8] = test system: ATN-1; experiment: Inhibition of proliferation of ATN-1 cells; assay type: cell-based; settings: Homo sapiens; Leukemia cell line ATN-1; read-out: IC50 against ATN-1
Experimental: as §1, §2

[9] = test system: MOLM-16; experiment: Inhibition of proliferation of MOLM-16 cells; assay type: cell-based; settings: MOLM16; Leukemia cell line MOLM-16; read-out: IC50 against MOLM-16
Experimental: as §1, §2

[10] = test system: OCI-AML3; experiment: Inhibition of proliferation of OCI-AML3 cells; assay type: cell-based; settings: Homo sapiens, OCI-AML-3; Leukemia cell line OCI-AML3; read-out: IC50 against OCI-AML3
Experimental: as §1, §2

[11] = test system: MT-2; experiment: Inhibition of proliferation of MT-2 cells; assay type: cell-based; settings: Homo sapiens, MT2; Leukemia cell line MT-2; read-out: IC50 against MT-2
Experimental: as §1, §2

[12] = test system: Pfeiffer; experiment: Inhibition of proliferation of Pfeiffer cells; assay type: cell-based; settings: Homo sapiens; Lymphoma cell line Pfeiffer; read-out: IC50 against Pfeiffer
Experimental: as §1, §2

[13] = test system: KARPAS-422; experiment: Inhibition of proliferation of KARPAS-422 cells; assay type: cell-based; settings: Homo sapiens; Lymphoma cell line KARPAS-422; read-out: IC50 against KARPAS-422
Experimental: as §1, §2

[14] = test system: Z-138; experiment: Inhibition of proliferation of Z-138 cells; assay type: cell-based; settings: Homo sapiens; Lymphoma cell line Z-138; read-out: IC50 against Z-138
Experimental: as §1, §2

[15] = test system: RL; experiment: Inhibition of proliferation of RL cells; assay type: cell-based; settings: Homo sapiens; Lymphoma cell line RL; read-out: IC50 against RL
Experimental: as §1, §2

[16] = test system: MM.1R; experiment: Inhibition of proliferation of MM.1R cells; assay type: cell-based; settings: Lymphoma cell line MM.1R; read-out: IC50 against MM.1R
Experimental: as §1, §2

[17] = test system: MLMA; experiment: Inhibition of proliferation of MLMA cells; assay type: cell-based; settings: Lymphoma cell line MLMA; read-out: IC50 against MLMA
Experimental: as §1, §2

[18] = test system: MAVER-1; experiment: Inhibition of proliferation of MAVER-1 cells; assay type: cell-based; settings: Homo sapiens, Maver1; Lymphoma cell line MAVER-1; read-out: IC50 against MAVER-1
Experimental: as §1, §2

[19] = test system: KMS-12-PE; experiment: Inhibition of proliferation of KMS-12-PE cells; assay type: cell-based; settings: Homo sapiens; Lymphoma cell line KMS-12-PE; read-out: IC50 against KMS-12-PE
Experimental: as §1, §2

[20] = test system: MDA-MB-453; experiment: Inhibition of proliferation of MDA-MB-453 cells; assay type: cell-based; settings: Homo sapiens; Breast cancer cell line MDA-MB-453; read-out: IC50 against MDA-MB-453
Experimental: as §1, §2

[21] = test system: MCF-7; experiment: Inhibition of proliferation of MCF-7 cells; assay type: cell-based; settings: Homo sapiens, MCF7; Breast cancer cell line MCF-7; read-out: IC50 against MCF-7
Experimental: as §1, §2

[22] = test system: BT-474; experiment: Inhibition of proliferation of BT-474 cells; assay type: cell-based; settings: Homo sapiens; Breast cancer cell line BT-474; read-out: IC50 against BT-474
Experimental: as §1, §2

[23] = test system: DU4475; experiment: Inhibition of proliferation of DU4475 cells; assay type: cell-based; settings: Homo sapiens, DU-4475; Breast cancer cell line DU4475; read-out: IC50 against DU4475
Experimental: as §1, §2

[24] = test system: HCC1428; experiment: Inhibition of proliferation of HCC1428 cells; assay type: cell-based; settings: Homo sapiens; Breast cancer cell line HCC1428; read-out: IC50 against HCC1428
Experimental: as §1, §2

[25] = test system: EVSA-T; experiment: Inhibition of proliferation of EVSA-T cells; assay type: cell-based; settings: Homo sapiens; Breast cancer cell line EVSA-T; read-out: IC50 against EVSA-T
Experimental: as §1, §2

[26] = test system: KMS-20; experiment: Inhibition of proliferation of KMS-20 cells; assay type: cell-based; settings: Multiple myeloma cell line KMS-20; read-out: IC50 against KMS-20
Experimental: as §1, §2

[27] = test system: KMS-11; experiment: Inhibition of proliferation of KMS-11 cells; assay type: cell-based; settings: Homo sapiens; Multiple myeloma cell line KMS-11; read-out: IC50 against KMS-11
Experimental: as §1, §2

[28] = test system: MM.1S; experiment: Inhibition of proliferation of MM.1S cells; assay type: cell-based; settings: Homo sapiens, MM1.S; Multiple myeloma cell line MM.1S; read-out: IC50 against MM.1S
Experimental: as §1, §2

[29] = test system: NCI-H929; experiment: Inhibition of proliferation of NCI-H929 cells; assay type: cell-based; settings: Homo sapiens; Multiple myeloma cell line NCI-H929; read-out: IC50 against NCI-H929
Experimental: as §1, §2

[30] = test system: OPM-2; experiment: Inhibition of proliferation of OPM-2 cells; assay type: cell-based; settings: Homo sapiens; Multiple myeloma cell line OPM-2; read-out: IC50 against OPM-2
Experimental: as §1, §2

[31] = test system: CWR22RV1 cells; experiment: Compound in combination with CDK4/6 inhibitor palbociclib on proliferation of CWR22RV1 cells; assay type: cell-based, human; settings: Homo sapiens, CWR22Rv1, single agent; read-out: IC50 against the activity of CWR22RV1 cells
Experimental: The IC50 values (nM) of the compound according to the present invention, palbociclib, and the combination of the compound according to the present invention and palbociclib against CWR22RV1 cell proliferation were tested and calculated, and the detailed procedures were as follows:
(§3) 1) CWR22RV1 cells were subcultured in cell culture medium, and the cells in good growth condition were seeded in a 96-well plate, 60 μL for each well, and the cell number in each well was 2000. The plate was incubated overnight in a 37° C., 5% CO2 cell incubator. 2) The drug was prepared as 10 mM stock solution with dimethyl sulfoxide (DMSO). Prior to use, the stock solution was diluted 3 times with DMSO, and then further diluted as 3-fold gradient to obtain 9 concentration gradients. Then, each concentration of compound was diluted 200 times with the culture solution (ensuring that the DMSO concentration in the culture system was 0.1%), and two replicate wells were set for each concentration. 20 μL of diluted compound solution was added to the cell culture well (with final concentrations of 10 μM, 3.3 μM, 1.1 μM . . . ). Palbociclib was diluted with culture medium to 500 nM, 150 nM, 50 nM, 5 nM, and 20 μL diluted compound solution was added to the corresponding cell culture wells (with a final concentration of 100 nM, 30 nM, 10 nM, 1 nM). The plate was gently shaken to mix. In addition, 3 negative control wells containing only cells and 3 blank control wells containing only culture medium were included (6 wells were each added 20 μL DMSO diluted 200 times with culture medium).
(§4) (1) After culturing for 6 days, 10 μL CCK-8 was added to each well, and the plate was continually cultured in a 37° C., 5% CO2 cell incubator for 2.5 h. (2) The absorbance (OD value) was detected at 450 nm using a multifunctional microplate reader. (3) The data were analyzed by Dose-response-inhibition equation in the software GraphPad Prism6, and the IC50 value was obtained.

[32] = test system: MCF-7 cells; experiment: Compound in combination with CDK4/6 inhibitor palbociclib against proliferation of MCF-7 cells; assay type: cell-based; settings: Homo sapiens, MCF7, single agent
Experimental: as §3, §4
Using the same method as Experimental example 4, CWR22RV1 cells were replaced with MCF-7 cells, and the IC50 values (nM) of the compound according to the present invention, palbociclib, as well as the combination of the compound according to the present invention and palbociclib against the proliferation of MCF-7 cells w ere tested and calculated.

- IC50 [2]: ≤ 500 nM
- IC50 [3]: ≤ 500 nM
- IC50 [4]: ≤ 500 nM
- IC50 [5]: ≤ 500 nM
- IC50 [9]: ≤ 500 nM
- IC50 [10]: ≤ 500 nM
- IC50 [13]: ≤ 500 nM
- IC50 [16]: 500 to 2000 nM
- IC50 [20]: ≤ 500 nM
- IC50 [21]: ≤ 500 nM
- IC50 [22]: ≤ 500 nM
- IC50 [24]: ≤ 500 nM
- IC50 [28]: 500 to 2000 nM
- IC50 [29]: ≤ 500 nM
Structure (SMILES): CNC(=O)Nc1cc2c(cc1F)[C@@]1(CC2)OC(=O)N(CC(=O)N2[C@@H](C)CC[C@H]2c2cc(F)c(F)c(F)c2)C1=O [Example 390, 1-((R)-6-fluoro-3′-(2-((2S,5S)-2-methyl-5-(3,4,5-trifluorophenyl)pyrrolidin-1-yl)-2-oxoethyl)-2′,4′-dioxo-2,3-dihydrospiro[indene-1,5′-oxazolidine]-5-yl)-3-methylurea]
- IC50 ([1]; read-out: IC50 against CWR22RV1 cells): ≤ 500 nM
- IC50 ([1]; read-out: IC50 against CWR22RV1 cells (text)): ≤ 500 nM
- IC50 [6]: ≤ 500 nM
- IC50 [7]: ≤ 500 nM
- IC50 [8]: ≤ 500 nM
- IC50 [11]: 500 to 2000 nM
- IC50 [12]: ≤ 500 nM
- IC50 [14]: ≤ 500 nM
- IC50 [15]: ≤ 500 nM
- IC50 [17]: ≤ 500 nM
- IC50 [18]: ≤ 500 nM
- IC50 [19]: 500 to 2000 nM
- IC50 [23]: 500 to 2000 nM
- IC50 [25]: 500 to 2000 nM
- IC50 [26]: ≤ 500 nM
- IC50 [27]: ≤ 500 nM
- IC50 [30]: ≤ 500 nM

- IC50 [32]: 34 nM
Structure (SMILES): CC(=O)c1c(C)c2cnc(Nc3ccc(N4CCNCC4)cn3)nc2n(C2CCCC2)c1=O [palbociclib, reference compound]
- IC50 [31]: 66 nM

Source: patent US20220087996A1, “Histone acetylase p300 inhibitor and use thereof” (HINOVA PHARMACEUTICALS INC., priority 2018, published 2022)
